The target of one assay is T1, human mTOR (Homo sapiens, UniProt P42345).
T1 construct: the portion corresponding to 1362-2549aa at the C terminus of human mTOR; made in house
Description: mTOR Kinase Activity Inhibition Test. It is filed as biochemical. To be noted: His-tagged mTOR (1362C), biotinylated peptide substrate, ATP, 3 hours at room temperature, fluorescence resonance energy transfer 665 nm/620 nm; read-out: IC50 value of mTOR enzyme inhibitory activity. Put shortly: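 Purified His-tagged human mTOR (1362–2549aa, from HEK293) was used with biotinylated peptide (8 μg/mL in enzyme solution) in HEPES pH 7.5 with 20 mM MnCl2. Compounds were diluted in 20 μM ATP solution, and the reaction ran 3 h at RT. Phospho-S6K(Thr389) HTRF was read as the 665/620 nm ratio, and IC50 came from % inhibition versus controls.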

The test system of the next assay is WM-266-4 cells. Description: Cell Proliferation Inhibitory Test. The assay is classed as cell-based. To be noted: Homo sapiens, 72 h, cultured three days with test compound, MTT, read-out: 50% cell proliferation inhibitory activity (GI50 value). A digest of the protocol: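 Cells cultured overnight, then exposed to serially diluted compound for three days; cell amount read by MTT. GI50 solved from 100×[(T−T0)/(C−T0)]=50, with T0 the value at time of compound addition and C the untreated three-day control.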

Molecules are shown by their SMILES.

T1 sequence (P42345 1362-2549): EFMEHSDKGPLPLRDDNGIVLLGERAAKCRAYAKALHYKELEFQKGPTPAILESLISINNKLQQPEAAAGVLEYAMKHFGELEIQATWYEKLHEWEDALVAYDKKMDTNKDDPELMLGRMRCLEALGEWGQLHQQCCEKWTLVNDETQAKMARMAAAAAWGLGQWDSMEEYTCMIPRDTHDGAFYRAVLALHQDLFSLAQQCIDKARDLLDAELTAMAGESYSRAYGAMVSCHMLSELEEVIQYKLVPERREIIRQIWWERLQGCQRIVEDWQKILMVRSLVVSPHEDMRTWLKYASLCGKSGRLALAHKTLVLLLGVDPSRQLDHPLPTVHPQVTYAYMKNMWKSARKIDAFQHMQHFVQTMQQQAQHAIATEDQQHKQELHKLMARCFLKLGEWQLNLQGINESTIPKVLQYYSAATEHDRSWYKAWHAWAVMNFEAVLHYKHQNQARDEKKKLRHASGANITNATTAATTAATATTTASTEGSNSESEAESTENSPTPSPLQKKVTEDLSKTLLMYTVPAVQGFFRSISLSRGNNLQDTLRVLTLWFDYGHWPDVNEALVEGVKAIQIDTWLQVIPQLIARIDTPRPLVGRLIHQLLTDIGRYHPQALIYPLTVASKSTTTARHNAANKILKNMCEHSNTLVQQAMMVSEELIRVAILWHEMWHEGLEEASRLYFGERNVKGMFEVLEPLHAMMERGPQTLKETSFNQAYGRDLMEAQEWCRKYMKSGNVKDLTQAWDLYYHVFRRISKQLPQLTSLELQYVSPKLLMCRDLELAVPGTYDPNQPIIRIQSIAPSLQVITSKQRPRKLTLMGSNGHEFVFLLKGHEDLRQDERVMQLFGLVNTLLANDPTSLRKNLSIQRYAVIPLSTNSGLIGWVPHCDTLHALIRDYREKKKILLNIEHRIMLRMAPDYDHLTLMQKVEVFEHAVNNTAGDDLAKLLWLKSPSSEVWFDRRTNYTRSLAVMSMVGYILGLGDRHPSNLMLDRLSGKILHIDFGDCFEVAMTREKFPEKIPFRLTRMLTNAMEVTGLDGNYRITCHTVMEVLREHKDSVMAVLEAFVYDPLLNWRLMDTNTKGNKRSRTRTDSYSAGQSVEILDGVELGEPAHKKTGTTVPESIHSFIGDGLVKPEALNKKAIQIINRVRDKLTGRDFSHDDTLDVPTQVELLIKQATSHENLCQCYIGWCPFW

For `O=c1[nH]c2ncc(-c3cc4cc[nH]c4nc3Cl)cc2n1C[C@H]1COCCO1` [Example 127, 6-(6-Chloro-1H-pyrrolo[2,3-b]pyridin-5-yl)-1-[(2S)-1,4-dioxan-2-ylmethyl]-1,3-dihydro-2H-imidazo[4,5-b]pyridin-2-one], the IC50 at human mTOR was under 50 nM. The GI50 in the assay on WM-266-4 cells was under 3000 nM.
Turning to `O=c1[nH]c2ncc(-c3cc(F)c4[nH]ccc4c3)cc2n1CCN1CCOCC1` [Example 33, 6-(7-Fluoro-1H-indol-5-yl)-1-(2-morpholin-4-ylethyl)-1,3-dihydro-2H-imidazo[4,5-b]pyridin-2-one], the IC50 on human mTOR is under 50 nM. For the same compound, the GI50 with WM-266-4 cells is under 3000 nM.
For `N#Cc1c(-c2cnc3[nH]c(=O)n(CC4CCOCC4)c3c2)cnc2[nH]ccc12` [Example 91, 5-[2-Oxo-1-(tetrahydro-2H-pyran-4-ylmethyl)-2,3-dihydro-1H-imidazo[4,5-b]pyridin-6-yl]-1H-pyrrolo[2,3-b]pyridine-4-carbonitrile], in that order: 100 to 5000 nM and under 3000 nM.
With `Nc1c[nH]c2ncc(-c3cnc4[nH]c(=O)n(CC5CCOCC5)c4c3)cc12` [Example 77, 6-(3-Amino-1H-pyrrolo[2,3-b]pyridin-5-yl)-1-(tetrahydro-2H-pyran-4-ylmethyl)-1,3-dihydro-2H-imidazo[4,5-b]pyridin-2-one], the IC50 on human mTOR is 50 to 100 nM. In the assay on WM-266-4 cells, the GI50 is 3000 to 25000 nM.

These data come from patent publication US8436012B2, “Imidazopyridin-2-one derivatives” (Daiichi Sankyo Company, Limited, priority 2008, dated 2013).
